Experimental findings from ChEMBL document CHEMBL5365482, “Rational Design of Sulfonyl-γ-AApeptides as Highly Potent HIV-1 Fusion Inhibitors with Broad-Spectrum Activity” (J Med Chem, 2023) are described below.

For data set [1], the system named is Human immunodeficiency virus 1. The data set can be described thus: Antiviral activity against HIV1 IIIB infected in human MT2 cells assessed as inhibition of viral growth incubated for 30 mins by ELISA assay. Format: functional, organism-based. The note with it: Human immunodeficiency virus 1, IIIB, MT2, 0.5 h. (In general: ELISA stands for enzyme-linked immunosorbent assay.)

The nature of data set [2]: Cytotoxicity against human MT2 cells assessed as inhibition of cell growth measured after 3 days by CCK8 assay. In kind it is toxicity, cell-based. The note with it: time 3 day. A general note: Formazan colour is commonly taken as a measure of viable cells.
Data set [3] in a line: Selectivity index, ratio of CC50 for human MT2 cells to IC50 for HIV1 IIIB infected in human MT2 cells. The conditions noted are these: read-out: Ratio CC50/IC50. In kind it is toxicity, cell-based.
The nature of data set [4]: Stability of compound in ammonium bicarbonate buffer at pH 7.8 at 0.1 mg/ml incubated for 24 hrs under at 37 degreeC in presence of pronase by HPLC analysis. Format: physicochemical. The conditions noted are these: pH 7.8, 24 h.
Data set [5] is described as follows: Apparent permeability of the compound across gastrointestinal tract in PBS buffer at pH 5 at 200 uM by PAMPA analysis. Format: ADME, tissue-based. For orientation: In PAMPA a lipid-coated filter parts donor from acceptor wells.
Data set [6] in a line: Apparent permeability of the compound across gastrointestinal tract in PBS buffer at pH 6.2 at 200 uM by PAMPA analysis. Format: ADME, tissue-based.
Data set [7] can be described thus: Apparent permeability of the compound across gastrointestinal tract in PBS buffer at pH 5 at 50 uM by PAMPA analysis. Format: ADME, tissue-based. The note with it: pampa, pH 5, 50 µM.
Data set [8] is described as follows: Apparent permeability of the compound across gastrointestinal tract in PBS buffer at pH 6.2 at 50 uM by PAMPA analysis. Format: ADME, tissue-based. The note with it: pampa, pH 6.2, 50 µM.
Data set [9] in a line: Apparent permeability of the compound across gastrointestinal tract in PBS buffer at pH 7.4 at 50 uM by PAMPA analysis. In kind it is ADME, tissue-based.
Data set [10] in a line: Apparent permeability of the compound across gastrointestinal tract in PBS buffer at pH 7.4 at 200 uM by PAMPA analysis. In kind it is ADME, tissue-based.
Data set [11] in a line: in vitro. The note with it: PAMPA, pH 7.4.
Description: Apparent permeability of the compound across blood brain barrier in PBS buffer at pH 7.4 at 250 uM by PAMPA analysis
The subject of data set [12] is Human immunodeficiency virus 1. The data set can be described thus: Antiviral activity against HIV1 CRF02_AG Clone 278 clinical isolate infected in human TZM-bl cells assessed as inhibition of viral growth incubated for 48 hrs by luciferase based analysis. In kind it is functional, organism-based. The conditions noted are these: Human immunodeficiency virus 1, CRF02_AG Clone 278, TZM-bl.

Data set [13] has as its system Human immunodeficiency virus 1. The data set can be described thus: Antiviral activity against HIV1 QD435.100MENV.E1 clinical isolate infected in human TZM-bl cells assessed as inhibition of viral growth incubated for 48 hrs by luciferase based analysis. In kind it is functional, organism-based. The conditions noted are these: Human immunodeficiency virus 1, QD435.100MENV.E1, TZM-bl.

Data set [14] relates to Human immunodeficiency virus 1. Kind of data set: Antiviral activity against HIV1 CRF02_AG Clone 33 clinical isolate infected in human TZM-bl cells assessed as inhibition of viral growth incubated for 48 hrs by luciferase based analysis. The conditions noted are these: Human immunodeficiency virus 1, CRF02_AG Clone 33, TZM-bl. In kind it is functional, organism-based.
The subject of data set [15] is Human immunodeficiency virus 1. The data set can be described thus: Antiviral activity against HIV1 Q259env.w6 clinical isolate infected in human TZM-bl cells assessed as inhibition of viral growth incubated for 48 hrs by luciferase based analysis. Format: functional, organism-based. The note with it: Human immunodeficiency virus 1, Q259env.w6, TZM-bl.
The subject of data set [16] is Human immunodeficiency virus 1. Kind of data set: Antiviral activity against HIV1 QA013.701.ENV.M12 clinical isolate infected in human TZM-bl cells assessed as inhibition of viral growth incubated for 48 hrs by luciferase based analysis. Format: functional, organism-based. The note with it: Human immunodeficiency virus 1, QA013.701.ENV.M12, TZM-bl.
For data set [17], the system named is Human immunodeficiency virus 1. Kind of data set: Antiviral activity against HIV1 X4 […] MN/H9 (84US_MNp) clinical isolate infected in human MT2 cells assessed as inhibition of viral growth incubated for 30 mins by ELISA assay. The note with it: Human immunodeficiency virus 1, X4 […] MN/H9 (84US_MNp), MT2, 0.5 h. Format: functional, organism-based.
Data set [18] has as its system Human immunodeficiency virus 1. The data set can be described thus: Antiviral activity against HIV1 R5 […] US4/GS 007 (91US_4) clinical isolate infected in human CEMx174 5.25M7 cells assessed as inhibition of viral growth incubated for 30 mins by ELISA assay. In kind it is functional, organism-based. The note with it: Human immunodeficiency virus 1, R5 […] US4/GS 007 (91US_4), CEMx174 5.25M7, 0.5 h.

In general, IC50 refers to the concentration that gives 50% inhibition. As usually defined, the CC50 is the concentration giving 50% cytotoxicity. Consider `CC[C@@H](C)[C@@H](CN(CC(=O)N[C@@H](CCC(=O)O)CN(CC(=O)N[C@@H](CC(C)C)CN(CC(N)=O)S(=O)(=O)CC(C)C)S(=O)(=O)c1ccc(C(=O)O)cc1)S(=O)(=O)CC(C)C)NC(=O)CN(C[C@H](CCCCN)NC(=O)CN(C[C@H](Cc1ccc(O)cc1)NC(=O)CN(C[C@H](CCC(=O)O)NC(=O)CN(C[C@@H](NC(=O)CN(C[C@H](CCCCN)NC(=O)CN(C[C@H](Cc1c[nH]c2ccccc12)NC(=O)CN(C[C@H](CCC(=O)O)NC(=O)CN(C[C@H](Cc1c[nH]c2ccccc12)NC(=O)CN(C[C@H](CCSC)NC(C)=O)S(=O)(=O)c1ccc(OC)cc1)S(=O)(=O)CC(C)C)S(=O)(=O)c1ccc(C(=O)O)cc1)S(=O)(=O)CC(C)C)S(=O)(=O)CCN)[C@H](C)CC)S(=O)(=O)CC(C)C)S(=O)(=O)c1ccc(C(=O)O)cc1)S(=O)(=O)CC(C)C)S(=O)(=O)CCN`, for which, in [1], the half-maximal inhibitory concentration (IC50) was 4000 nM. In addition, the CC50 at 72 h in data set [2] was above 40000 nM. Moreover, in data set [3], the selectivity ratio is above 10. Further, the Stability entry in [4] is on record as “Stable”.

Consider `CC[C@@H](C)[C@@H](CN(CC(=O)N[C@@H](CCC(=O)O)CN(CC(=O)N[C@@H](CC(C)C)CN(CC(N)=O)S(=O)(=O)CC(C)C)S(=O)(=O)c1ccc(C(=O)O)cc1)S(=O)(=O)CC(C)C)NC(=O)CN(C[C@H](CCCCN)NC(=O)CN(C[C@H](Cc1ccc(O)cc1)NC(=O)CN(C[C@H](CCC(=O)O)NC(=O)CN(C[C@@H](NC(=O)CN(C[C@H](CCCCN)NC(=O)CN(C[C@H](Cc1c[nH]c2ccccc12)NC(=O)CN(C[C@H](CCC(=O)O)NC(=O)CN(C[C@H](Cc1c[nH]c2ccccc12)NC(C)=O)S(=O)(=O)CC(C)C)S(=O)(=O)c1ccc(C(=O)O)cc1)S(=O)(=O)CC(C)C)S(=O)(=O)CCN)[C@H](C)CC)S(=O)(=O)CC(C)C)S(=O)(=O)c1ccc(C(=O)O)cc1)S(=O)(=O)CC(C)C)S(=O)(=O)CCN`, for which the IC50 in data set [1] was above 100000 nM. Besides, the CC50 at 72 h in data set [2] is above 100000 nM.

`CC[C@@H](C)[C@@H](CN(CC(=O)N[C@@H](CCC(=O)O)CN(CC(=O)N[C@@H](CC(C)C)CN(CC(=O)N[C@@H](CCCCN)CN(CC(=O)N[C@@H](CC(C)C)CN(CC(N)=O)S(=O)(=O)CC(C)C)S(=O)(=O)CCN)S(=O)(=O)CC(C)C)S(=O)(=O)c1ccc(C(=O)O)cc1)S(=O)(=O)CC(C)C)NC(=O)CN(C[C@H](CCCCN)NC(=O)CN(C[C@H](Cc1ccc(O)cc1)NC(=O)CN(C[C@H](CCC(=O)O)NC(=O)CN(C[C@@H](NC(=O)CN(C[C@H](CCCCN)NC(=O)CN(C[C@H](Cc1c[nH]c2ccccc12)NC(=O)CN(C[C@H](CCC(=O)O)NC(=O)CN(C[C@H](Cc1c[nH]c2ccccc12)NC(=O)CN(C[C@H](CCSC)NC(C)=O)S(=O)(=O)c1ccc(OC)cc1)S(=O)(=O)CC(C)C)S(=O)(=O)c1ccc(C(=O)O)cc1)S(=O)(=O)CC(C)C)S(=O)(=O)CCN)[C@H](C)CC)S(=O)(=O)CC(C)C)S(=O)(=O)c1ccc(C(=O)O)cc1)S(=O)(=O)CC(C)C)S(=O)(=O)CCN`: the IC50 in [1] was found to be 15700 nM. The CC50 at 72 h in data set [2] is above 100000 nM. Also, the selectivity ratio in [3] is above 6.3.

For the compound `CC[C@@H](C)[C@@H](CN(CC(=O)N[C@@H](CCC(=O)O)CN(CC(=O)N[C@@H](CC(C)C)CN(CC(N)=O)S(=O)(=O)CC(C)C)S(=O)(=O)c1ccc(C(=O)O)cc1)S(=O)(=O)CC(C)C)NC(=O)CN(C[C@H](CCCCN)NC(=O)CN(C[C@H](Cc1ccc(O)cc1)NC(=O)CN(C[C@H](CCC(=O)O)NC(=O)CN(C[C@@H](NC(=O)CN(C[C@H](CCCCN)NC(=O)CN(C[C@H](Cc1c[nH]c2ccccc12)NC(=O)CN(C[C@H](CCC(=O)O)NC(=O)CN(C[C@H](Cc1c[nH]c2ccccc12)NC(=O)CN(C[C@H](CCSC)NC(C)=O)S(=O)(=O)CC(C)C)S(=O)(=O)CC(C)C)S(=O)(=O)c1ccc(C(=O)O)cc1)S(=O)(=O)CC(C)C)S(=O)(=O)CCN)[C@H](C)CC)S(=O)(=O)CC(C)C)S(=O)(=O)c1ccc(C(=O)O)cc1)S(=O)(=O)CC(C)C)S(=O)(=O)CCN`, the IC50 in [1] was determined as 30000 nM. The CC50 at 72 h in [2] is above 40000 nM. The selectivity ratio in [3] is above 1.3. Moreover, in data set [4], the Stability result is “Stable”.

As for `CC[C@@H](C)[C@@H](CN(CC(=O)N[C@@H](CCC(=O)O)CN(CC(=O)N[C@@H](CC(C)C)CN(CC(N)=O)S(=O)(=O)CC(C)C)S(=O)(=O)c1ccc(C(=O)O)cc1)S(=O)(=O)CC(C)C)NC(=O)CN(C[C@H](CCCCN)NC(=O)CN(C[C@H](Cc1ccc(O)cc1)NC(=O)CN(C[C@H](CCC(=O)O)NC(=O)CN(C[C@@H](NC(=O)CN(C[C@H](CCCCN)NC(=O)CN(C[C@H](Cc1c[nH]c2ccccc12)NC(=O)CN(C[C@H](CCC(=O)O)NC(=O)CN(C[C@H](Cc1c[nH]c2ccccc12)NC(=O)CN(C[C@H](CCSC)NC(C)=O)S(C)(=O)=O)S(=O)(=O)CC(C)C)S(=O)(=O)c1ccc(C(=O)O)cc1)S(=O)(=O)CC(C)C)S(=O)(=O)CCN)[C@H](C)CC)S(=O)(=O)CC(C)C)S(=O)(=O)c1ccc(C(=O)O)cc1)S(=O)(=O)CC(C)C)S(=O)(=O)CCN`, the half-maximal inhibitory concentration (IC50) in [1] came out at 38900 nM. Further, in [2], the CC50 at 72 h is above 100000 nM. The selectivity ratio in [3] is above 2.5.

Broadly, the Papp is the rate of passage across a membrane or cell layer, normalised by area and donor concentration. Regarding `Cc1cc(=O)n(-c2ccccc2)n1C` [ANTIPYRINE], the Papp at 200 µM in data set [5] and in data set [6] was below 1 ×10⁻⁶ cm/s in each case.

Consider `NC(=O)N1c2ccccc2C=Cc2ccccc21` [CARBAMAZEPINE], for which the Papp in [7] was 134.41 10^-6 cm/s; in data set [8] it was 141.28 10^-6 cm/s. Besides, the Papp at 50 µM in data set [9] came out at 152 ×10⁻⁶ cm/s. Also, the Papp at 200 µM in [10] was below 1 ×10⁻⁶ cm/s.

In turn, `Cn1c(=O)c2[nH]cnc2n(C)c1=O.O` [THEOPHYLLINE] registered a Papp at 250 µM in data set [11] below 10 ×10⁻⁶ cm/s.

As to enfuvirtide, the IC50 in data set [12] came to 28.4 nM; in [13], 72 nM; in [14], 28.4 nM; in data set [15], 50.8 nM; in [16] it was 6.5 nM; in data set [17] it was 3 nM. The IC50 in [18] was found to be 15.7 nM.
